Patent US20100003217A1, “Compounds and Pharmaceutical Compositions for the Treatment of Viral Infections” (priority 2008, published 2010)

Legend:
CYP3A4 [1] = molecular target: T1, CYP3A4 (Homo sapiens, UniProt P08684); experiment: Effect of CYP3A4 inhibitors (ketoconazole, ritonavir) on metabolic stability in human liver microsomes; type: in vitro ADME; conditions: human microsomes 1 mg/mL, 60 min, 10 μM, NADPH
Protocol: (§1) Incubations were conducted in a final volume of 0.1 mL per incubation time point. […] Final solvent (DMSO or methanol) concentration was maintained at 0.2%. Reactions were initiated by the addition of an NADPH regenerating system (1.3 mM NADP^+, 3.3 mM glucose-6-phosphate, 0.4 U/ml glucose-6-phosphate dehydrogenase, and 3.3 mM MgCl2, final concentrations). Incubations with no inhibitor served as control. Reactions were terminated at 30 min (monkey) or 60 min (rat and human) by the addition of 0.2 mL of stop solution (acetonitrile). The samples were vortex-mixed for 30 sec and then centrifuged at 10,000×g for 10 min. The supernatant was dried using a Labconco CentriVap concentrator and the dry residue reconstituted in water, transferred to an HPLC glass vial and analyzed by HPLC-UV method 1 (described above).
(§2) Because Compound 1 is rapidly metabolized in monkey liver microsomes, incubation conditions were adjusted by reducing protein content to 0.5 mg/mL and incubation time to 30 min. Incubation conditions for rat and human were unchanged; protein was 1 mg/mL and incubation time was 60 min.

CYP2C19 = CYP2C19 (Homo sapiens, UniProt P33261); experiment: Incubation with human recombinant CYP450 supersomes, 2C19; type: in vitro ADME; conditions: CYP450 2C19 supersomes, 60 min, 10 μM, average of two experiments
CYP2C19, sequence (P33261 whole entry): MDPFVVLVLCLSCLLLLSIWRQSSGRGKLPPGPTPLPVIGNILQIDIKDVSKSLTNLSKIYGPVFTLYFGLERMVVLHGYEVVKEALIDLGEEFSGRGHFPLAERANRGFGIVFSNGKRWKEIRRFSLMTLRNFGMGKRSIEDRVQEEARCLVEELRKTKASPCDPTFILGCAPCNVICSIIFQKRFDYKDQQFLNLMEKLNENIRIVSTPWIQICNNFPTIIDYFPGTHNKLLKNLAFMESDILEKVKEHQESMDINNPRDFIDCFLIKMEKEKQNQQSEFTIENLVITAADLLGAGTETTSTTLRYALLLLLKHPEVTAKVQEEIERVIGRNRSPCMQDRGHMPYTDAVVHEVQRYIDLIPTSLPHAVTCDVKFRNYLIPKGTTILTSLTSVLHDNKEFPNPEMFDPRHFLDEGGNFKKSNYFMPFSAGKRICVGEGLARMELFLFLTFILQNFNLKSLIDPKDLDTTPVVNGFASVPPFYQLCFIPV
Protocol: (§3) Supersomes—Incubations were conducted in a final volume of 0.1 mL reaction buffer (50-100 mM potassium phosphate, pH 7.4 or 100 mM Tris-HCL, pH 7.4) according to protocol provided with each CYP450 supersome. Each reaction contained […] of CYP450 supersome, 1.3 mM NADP^+, 3.3 mM glucose-6-phosphate, 0.4 U/mL glucose-6-phosphate dehydrogenase, 3.3 mM MgCl2 and 10 μM Compound 1. Following incubation for 60 min at 37° C., 100 μL of stop solution (acetonitrile:methanol; 1:1) was added and samples centrifuged for 10 min at 10,000×g. The supernatant was then dried and reconstituted in 10 mM potassium phosphate, pH 5, further transferred to an HPLC glass vial and analyzed by HPLC-UV (described above).

[2] = test system: HCV genotype 1b replicon (Zluc cells); experiment: HCV luciferase replicon assay; type: cell-based, hepatitis C virus; conditions: Hepatitis C virus, 72 h, 3 days
Protocol: The HCV luciferase replicon assay measures the ability of a test compound to inhibit HCV replication in cell culture after 3 days of treatment in a human hepatoma cell line (Huh-7) bearing the HCV genotype 1b replicon and a luciferase-neomycin phosphotransferase fusion gene. The inhibition of HCV replication was measured by quantification of luciferase protein expression. The HCV luciferase replicon was constructed by fusing a luciferase gene to the amino terminus of the neomycin phosphotransferase gene of the ZS11 HCV replicon. The ZS11 HCV replicon (Zhu Q, Guo J-T, and Seeger C, 2003) is derived from the SP1 replicon, but contains three cell culture-adapted mutations: E1202G (NS3), S22041 (NS5A), and D2254E (NS5A). These mutations allow for efficient in vitro replication. The luciferase reporter gene was amplified from the pGL4.13[luc2/SV40] vector (Promega Corp.). The replicon resulting from the luciferase-neomycin fusion (ZS11-luc) was stably-transfected into Huh-7 cells, yielding the Zluc cell line.
The luciferase replicon assay is summarized as follows: Solid white 96-well tissue culture plates (BD Falcon) were seeded with Zluc cells. Antiviral compound solutions were made up freshly in medium as 2×-concentrated stocks. Eight additional 3-fold drug dilutions were prepared from these stocks in medium for a total of 9 dilutions. At least four hours after Zluc cells were seeded, drug treatment was initiated by adding one volume of each 2×-concentrated drug dilution to one volume of cells/medium in the tissue culture plates. Cells were then incubated for 3 days at 37° C./5% CO2.
The media/compound was then removed from the plates and the ONE-glo Luciferase assay reagent (Promega) was added to each well. The assay plates were shaken for 3 minutes at room temperature and luciferase activity for each well was measured with a 1 sec read time on the Victor^3V multilabel counter using a 700 nm cut-off filter (Perkin Elmer). EC50 values were calculated from dose response curves from the resulting best-fit equations determined by Microsoft Excel and XLfit 4.1 software.

[3] = test system: HCV genotype 1b replicon (GS4.1 cells); experiment: In vitro combination of Compound 1 and ribavirin on HCV replicon (NS4A ELISA; MacSynergy II, CombiTool, CalcuSyn); type: cell-based; conditions: Hepatitis C virus, 72 h, single-drug titration experiments, three days
Protocol: This setup was run in duplicate in each 96-well plate.
Cells were incubated with inhibitors for three days at 37° C./5% CO2.
After three days of drug treatment, media was removed from the plates via gentle tapping and the cells were fixed to the plates with 100 μL/well of 1:1 acetone:methanol.
After one minute of incubation at room temperature, plates were washed three times with 100 μL/well of ELISA wash solution and then blocked with 150 μL/well of 10% FBS-TNE.
After a one hour incubation period at 37° C., each plate was washed three times with 100 μL/well of ELISA wash solution. Color development was then initiated with 100 μL/well of OPD solution.
After a 30 minute incubation period in the dark at room temperature, reactions were stopped by adding 100 μL of 2NH2SO4 to each well.
The absorbance was measured at 490 nm on a Victor^3 V 1420 multilabel counter (Perkin Elmer).

CYP3A4 [4] = experiment: Effect of CYP3A4 inhibitors (ketoconazole, ritonavir) on metabolic stability in rat liver microsomes; type: in vitro ADME; conditions: rat microsomes 1 mg/mL, 60 min, 10 μM, NADPH
Protocol: as §1, §2

CYP2C8 = CYP2C8 (Homo sapiens, UniProt P10632); experiment: Incubation with human recombinant CYP450 supersomes, 2C8; type: in vitro ADME; conditions: CYP450 2C8 supersomes, 60 min, 10 μM, average of two experiments
CYP2C8, sequence (P10632 whole entry): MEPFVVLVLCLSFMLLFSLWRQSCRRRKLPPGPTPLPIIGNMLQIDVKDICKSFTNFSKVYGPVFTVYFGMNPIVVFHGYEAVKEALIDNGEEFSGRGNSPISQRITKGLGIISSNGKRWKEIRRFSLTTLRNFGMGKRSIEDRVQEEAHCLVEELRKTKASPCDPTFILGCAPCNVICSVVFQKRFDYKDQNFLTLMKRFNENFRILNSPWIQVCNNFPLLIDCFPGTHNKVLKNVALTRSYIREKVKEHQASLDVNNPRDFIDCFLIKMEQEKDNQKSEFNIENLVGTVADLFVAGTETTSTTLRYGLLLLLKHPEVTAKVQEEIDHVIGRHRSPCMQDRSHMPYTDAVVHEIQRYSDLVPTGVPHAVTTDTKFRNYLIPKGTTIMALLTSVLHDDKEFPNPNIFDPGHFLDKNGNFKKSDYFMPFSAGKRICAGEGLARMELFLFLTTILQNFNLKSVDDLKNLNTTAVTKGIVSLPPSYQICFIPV
Protocol: as §3

CYP3A4 [5] = molecular target: T1, CYP3A4; experiment: Incubation with human recombinant CYP450 supersomes, 3A4; type: in vitro ADME; conditions: CYP450 3A4 supersomes, 60 min, 10 μM, average of two experiments
Protocol: as §3

CYP2E1 = CYP2E1 (Homo sapiens, UniProt P05181); experiment: Incubation with human recombinant CYP450 supersomes, 2E1; type: in vitro ADME; conditions: CYP450 2E1 supersomes, 60 min, 10 μM, average of two experiments
CYP2E1, sequence (P05181 whole entry): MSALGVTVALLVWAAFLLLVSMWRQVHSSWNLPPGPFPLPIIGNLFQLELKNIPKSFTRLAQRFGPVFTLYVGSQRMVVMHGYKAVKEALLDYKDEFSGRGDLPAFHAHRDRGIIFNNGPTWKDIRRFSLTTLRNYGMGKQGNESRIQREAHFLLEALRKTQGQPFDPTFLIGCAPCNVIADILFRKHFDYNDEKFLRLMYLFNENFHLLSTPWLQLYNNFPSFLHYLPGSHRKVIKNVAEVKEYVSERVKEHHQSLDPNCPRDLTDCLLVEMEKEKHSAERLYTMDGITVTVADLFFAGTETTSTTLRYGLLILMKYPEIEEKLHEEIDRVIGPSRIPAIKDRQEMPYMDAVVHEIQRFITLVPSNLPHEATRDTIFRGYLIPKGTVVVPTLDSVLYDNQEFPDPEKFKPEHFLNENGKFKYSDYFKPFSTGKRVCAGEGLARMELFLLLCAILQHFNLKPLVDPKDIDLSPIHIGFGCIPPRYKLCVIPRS
Protocol: as §3

T1 sequence (P08684 whole entry): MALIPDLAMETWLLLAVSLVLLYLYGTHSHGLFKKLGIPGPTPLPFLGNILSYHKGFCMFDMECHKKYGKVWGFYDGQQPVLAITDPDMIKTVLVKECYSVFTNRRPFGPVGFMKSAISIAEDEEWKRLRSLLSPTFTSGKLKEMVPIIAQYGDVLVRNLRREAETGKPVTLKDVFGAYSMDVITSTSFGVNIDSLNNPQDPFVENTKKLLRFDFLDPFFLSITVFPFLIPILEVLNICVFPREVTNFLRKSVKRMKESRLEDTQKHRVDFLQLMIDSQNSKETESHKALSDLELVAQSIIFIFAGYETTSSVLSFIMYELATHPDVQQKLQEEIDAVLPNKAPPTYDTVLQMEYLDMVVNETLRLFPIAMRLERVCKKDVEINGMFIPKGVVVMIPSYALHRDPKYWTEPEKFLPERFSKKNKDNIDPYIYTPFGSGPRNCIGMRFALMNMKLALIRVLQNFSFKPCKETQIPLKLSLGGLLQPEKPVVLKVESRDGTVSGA

SMILES: CC(C)(CO)C(=O)SCCOP(=O)(NCc1ccccc1)OC[C@H]1O[C@@H](n2cnc3c(=O)[nH]c(N)nc32)[C@](C)(O)[C@@H]1O (mixture of isomers) [Compound 1, 3-hydroxy-2,2-dimethyl-thiopropionic acid S-(2-{[(2R,3R,4R,5R)-5-(2-amino-6-oxo-1,6-dihydro-purin-9-yl)-3,4-dihydroxy-4-methyl-tetrahydro-furan-2-ylmethoxy]-benzylamino-phosphoryloxy}-ethyl) ester]
- % Residual Compound 1 (CYP3A4 [1]; Ketoconazole 0.1 μM): 103%
- % Residual Compound 1 (CYP3A4 [1]; Ketoconazole 1 μM): 117%
- % Residual Compound 1 (CYP3A4 [1]; Ritonavir 0.1 μM): 92%
- % Residual Compound 1 (CYP3A4 [1]; Ritonavir 1 μM): 117%
- % Residual Compound 1 (CYP3A4 [1]; inhibitor 0 μM): 65%
- % Residual Compound 1 (CYP2C19): 111%
- EC50 [2]: 0.068 ± 0.0004 µM
- EC50 [3]: 0.4 ± 0.09 µM
- % Residual Compound 1 (CYP3A4 [4]; Ketoconazole 0.1 μM): 83%
- % Residual Compound 1 (CYP3A4 [4]; Ketoconazole 1 μM): 120%
- % Residual Compound 1 (CYP3A4 [4]; Ritonavir 0.1 μM): 101%
- % Residual Compound 1 (CYP3A4 [4]; Ritonavir 1 μM): 123%
- % Residual Compound 1 (CYP3A4 [4]; inhibitor 0 μM): 86%
- % Residual Compound 1 (CYP2C8): 105%
- % Residual Compound 1 (CYP3A4 [5]): 62%
- % Residual Compound 1 (CYP2E1): 100%
